Experiments:
[1] = test system: PBMC of patients with non-small cell lung cancer (NSCLC); assay: In vitro stimulation of PBMC of NSCLC patients with 9- or 10-aa ppCT peptides, CD8+/IFNγ+ cells by flow cytometry; type: cell-based, human
Procedure: The peripheral blood mononuclear cells (PBMC) of 11 patients with non-small cell lung cancer (NSCLC) were isolated from the peripheral blood by Ficoll. For each peptide, the PBMC were stimulated twice (D0 and D7) with 20 μM of peptide. The PBMC were cultivated for 2 weeks on 96-well plates, at a rate of 20 million cells/plate, on complete medium (RPMI 1640, 10% SAB, 1% sodium pyruvate, 0.1% penicillin/[…]) in the presence of IL-2 (20 IU/ml)+IL-4 (10 ng/ml)+IL-7 (10 ng/ml).
After 15 days, the PBMC are again stimulated with 2.5 μM of the peptide used during the first stimulation step, in the presence of 100 μg/ml of Brefeldin A, and incubated for 6 hours at 37° C., 5% CO2. The cells are then incubated for 20 minutes with an anti-CD8-APC antibody, then washed in PBS, fixed with PBS-formaldehyde 2% and permeabilised by BSA/saponin. They are then incubated with an anti-IFN-γ-PE antibody. The analysis is carried out by flow cytometry. The statistical study is performed using the Mann-Whitney test and the statistically significant increases are indicated (*p<0.05; **p<0.01; ***p<0.005).

[2] = test system: CD8 T lymphocytes expressing IFNγ (splenocytes); assay: Immunisation of HLA-A2 transgenic mice with peptide combinations, CD8+/IFNγ+ splenocytes by flow cytometry after ex vivo restimulation; type: in vivo, transgenic mice for the HLA-A2 molecules; details: splenocytes of immunised mice
Procedure: The transgenic mice for the HLA-A2 molecules were immunised 4 times (D0, D7, D14 and D21), under the skin on the flank, with 100 μl of peptide combinations containing an equimolar mixture of 100 μM of each of the peptides and an adjuvant (25 μg of Poly (I:C)) (FIG. 4). At 28 days after the first injection, the mice were sacrificed and the splenocytes were recovered and cultivated overnight in complete medium (RPMI 1640, 10% FBS, 1% sodium pyruvate, 0.1% penicillin/[…]) in the presence of IL-2 (20 IU/ml).
The next day, the splenocytes were stimulated with 2.5 μM of each of the peptides, alone or in combination, in the presence of 10 μg/ml of Brefeldin A and incubated for 6 hours at 37° C., 5% CO2. The cells are then incubated for 20 minutes with an anti-CD8-PE antibody, then washed in PBS, fixed with PBS-formaldehyde 2% and permeabilised with BSA/saponin. They are then incubated with an anti-IFNγ-APC antibody. The analysis is carried out by flow cytometry.

[3] = patients 4, 5 and 7 (respond only to these peptides)

Row | Sequence | lymphocyte response after stimulation [1, 3] | CD8 T lymphocyte response induced by the peptide alone on ex vivo stimulation [2] | lymphocyte response after stimulation ([1]; patient 3)
1 | FLALSILVL (synthetic peptide ppCT9-17) | trigger a lymphocyte response |  | 
2 | LLAALVQDYV (synthetic peptide ppCT50-59) | trigger a lymphocyte response | strong response | triggers a response
3 | CMLGTYTQDF (synthetic peptide ppCT91-100) |  |  | triggers a response

From patent US11179449B2, “Immunogenic preprocalcitonin peptides” (Institut Gustave Roussy, priority 2015, dated 2021)
